The values that follow are results of earlier work, collected in US9895311B2, “Foam-forming compositions and methods for delivering an active to a body cavity” (Pharmiva AB, priority 2014, dated 2018).

Series [1] relates to anaerobic bacteria involved in vaginal and urinary tube infections. Conditions: in 7 seconds, laboratory conditions (Block 1983).
For series [2], the system named is several species. The settings on record: even at low pH (Attassi, Servin 2010).

Structures are written as SMILES.

Take `OO` [hydrogen peroxide]: the log reduction in series [1] is given as 2 log. For the same molecule, the “Concentration required for inhibition” value in series [2] is listed as at least 20 mM.
